Assay results from patent US4170656A, “Compositions containing cis-2-benzoyl-3-hydroxy-crotononitrile used to treat inflammation and joint deterioration” (priority 1978, dated 1979).

Experiments:
[1] = S. Wong et al. (1973); G. R. Bobalick et al. (1974); cited from earlier work
[2] = Carrageenin induced paw edema in rats (acute anti-inflammatory activity); type: in vivo, Royal Hart, Wistar strain rats; conditions: 250 mg./kg. by gavage; 5 hours after drug (4 hours after carrageenin); ratio greater than 1.41 is active
Experimental: In determining the acute anti-inflammatory activity of the cis-2-benzoyl-3-hydroxy-2-alkenonitriles of the present invention, Royal Hart, Wistar strain rats, ranging in weight from 80 to 90 grams were used. The rats were fasted overnight prior to dosing but had free access to water. The test compounds were administered in aqueous suspension, by gavage, in a volume of 1.7 ml. per 50 grams of rat [corresponds to hydration volume used by Winter, et al., Proc. Soc. […] The phlogistic agent used was carrageenin prepared as a sterile 1% suspension in 0.9% aqueous sodium chloride for routine testing. A volume of 0.05 ml. was injected through a 26 gauge needle into the plantar tissue of the right hind paw. Measurements were made 5 hours after drug administration (4 hours after carrageenin challenge). Volumes of both the normal and carrageenin inflammed feet were determined. The difference between the two measurements is considered to be the increased edema due to the carrageenin administration.

[3] = Adjuvant induced arthritis in rats (Freund's adjuvant); type: in vivo, Royal Hart, Wistar strain rats; conditions: for Dead/Treated At 21 Days: days 0-13
Experimental: Groups of three Royal Hart, Wistar strain rats weighing 200±10 grams each were injected intradermally in the right hind paw with Freund's adjuvant (dried human tubercle bacilli in a mineral oil vehicle) at a dose of 2 mg./kg. of body weight. Test compound was administered orally in a 1.5% starch vehicle at various doses once daily on days 0 through 13 post challenge. Control rats were treated in a similar manner, but given only starch vehicle. On the 14th and 21st day post challenge the diameter of the injected paw (primary lesion) was measured by micrometer caliper. The volume of inflamed paws were estimated from these measurements and the results are expressed as percent inhibition of swelling as compared to controls. At the same time, the other inflamed sites, such as ears, paws and tail (seconday lesions) were observed and each rat was graded as to degree of inflammation and swelling present. The grading is based on a scale of 0 to 24, where 0 represents a complete absence of induced arthritic nodules and 24 represents the maximum degree of inflammation. The mean grade for each treated group is calculated and the effects of each compound are expressed as percent inhibition of the control grade. Table I records the results of tests conducted with a typical compound of the present invention and known anti-inflammatory agents.

[4] = Ultraviolet induced erythema in guinea pigs; type: in vivo, Albino guinea pigs; conditions: maximum 3.0
Experimental: Albino guinea pigs were depilitated on their flanks, the evening before testing, with a standard mixture of barium sulfide and gum acacia. On the morning of the test, groups of four guinea pigs were dosed by gavage one hour prior (-1 hour) to ultraviolet exposure. At 0 hour they were restrained in a plastic container which allows exposure of 3 circular spots. They were then exposed to ultraviolet irradiation from a "Hanovia" Kromayer lamp, model 10, for 60 seconds. At one and four hours, the degree of erythema for each of the three sites was assessed according to the following scoring system: 0= no erythema, 0.5=incomplete circle or faint erythema, and 1.0=complete circle of distinct erythema. Thus, the maximum score for each animal was 3.0.

Compound: COc1ccc2c(c1)c(CC(=O)O)c(C)n2C(=O)c1ccc(Cl)cc1 [Indomethacin]
- arthritic paw swelling [1]: inhibit arthritic paw swelling
- joint and bone deterioration [1]: prevent joint and bone deterioration
- C/T Edema Ratio [2]: 2.9
- % Inhibition of Control Grade (secondary lesion) ([3]; oral 0.25 mg./kg., Day 14): 22%
- % Inhibition of Swelling (primary lesion) ([3]; oral 0.25 mg./kg., Day 14): 30%
- Mean Weight Gain ([3]; oral 0.25 mg./kg., Day 14): 51 grams
- % Inhibition of Control Grade (secondary lesion) ([3]; oral 0.25 mg./kg., Day 21): 4%
- % Inhibition of Swelling (primary lesion) ([3]; oral 0.25 mg./kg., Day 21): 4%
- Mean Weight Gain ([3]; oral 0.25 mg./kg., Day 21): 57 grams
- Dead/Treated At 21 Days ([3]; oral 0.25 mg./kg.): 0/9
- % Inhibition of Control Grade (secondary lesion) ([3]; oral 0.5 mg./kg., Day 14): 25%
- % Inhibition of Swelling (primary lesion) ([3]; oral 0.5 mg./kg., Day 14): 40%
- Mean Weight Gain ([3]; oral 0.5 mg./kg., Day 14): 53 grams
- % Inhibition of Control Grade (secondary lesion) ([3]; oral 0.5 mg./kg., Day 21): 17%
- % Inhibition of Swelling (primary lesion) ([3]; oral 0.5 mg./kg., Day 21): 20%
- Mean Weight Gain ([3]; oral 0.5 mg./kg., Day 21): 51 grams
- Dead/Treated At 21 Days ([3]; oral 0.5 mg./kg.): 5/54
- % Inhibition of Control Grade (secondary lesion) ([3]; oral 1 mg./kg., Day 14): 34%
- % Inhibition of Swelling (primary lesion) ([3]; oral 1 mg./kg., Day 14): 46%
- Mean Weight Gain ([3]; oral 1 mg./kg., Day 14): 63 grams
- % Inhibition of Control Grade (secondary lesion) ([3]; oral 1 mg./kg., Day 21): 20%
- % Inhibition of Swelling (primary lesion) ([3]; oral 1 mg./kg., Day 21): 19%
- Mean Weight Gain ([3]; oral 1 mg./kg., Day 21): 65 grams
- Dead/Treated At 21 Days ([3]; oral 1 mg./kg.): 9/54
- % Inhibition of Control Grade (secondary lesion) ([3]; oral 2 mg./kg., Day 14): 38%
- % Inhibition of Swelling (primary lesion) ([3]; oral 2 mg./kg., Day 14): 51%
- Mean Weight Gain ([3]; oral 2 mg./kg., Day 14): 68 grams
- % Inhibition of Control Grade (secondary lesion) ([3]; oral 2 mg./kg., Day 21): 25%
- % Inhibition of Swelling (primary lesion) ([3]; oral 2 mg./kg., Day 21): 24%
- Mean Weight Gain ([3]; oral 2 mg./kg., Day 21): 68 grams
- Dead/Treated At 21 Days ([3]; oral 2 mg./kg.): 8/57
- Erythema Score (avg.) ([4]; oral 3.9 mg./kg., 1 hour): 1.2
- Erythema Score (avg.) ([4]; oral 3.9 mg./kg., 4 hours): 2.9
- Erythema Score (avg.) ([4]; oral 7.8 mg./kg., 1 hour): 0.6
- Erythema Score (avg.) ([4]; oral 7.8 mg./kg., 4 hours): 2.3
- Erythema Score (avg.) ([4]; oral 15.6 mg./kg., 1 hour): 0
- Erythema Score (avg.) ([4]; oral 15.6 mg./kg., 4 hours): 2.0
- Erythema Score (avg.) ([4]; oral 31.3 mg./kg., 1 hour): 0.1
- Erythema Score (avg.) ([4]; oral 31.3 mg./kg., 4 hours): 1.9
- Erythema Score (avg.) ([4]; oral 62.5 mg./kg., 1 hour): 0
- Erythema Score (avg.) ([4]; oral 62.5 mg./kg., 4 hours): 1.3
- Erythema Score (avg.) ([4]; oral 125 mg./kg., 1 hour): 0
- Erythema Score (avg.) ([4]; oral 125 mg./kg., 4 hours): 1.3
- Erythema Score (avg.) ([4]; oral 250 mg./kg., 1 hour): 0
- Erythema Score (avg.) ([4]; oral 250 mg./kg., 4 hours): 1.0
